How the values were obtained:
[1] = test system: 48 hr homologous passive cutaneous anaphylaxis (PCA) in rat; test: Antiallergic activity (48 hr homologous passive cutaneous anaphylaxis (PCA) in rat); type: in vivo, rat (male Wistar); details: oral, 1 hr before antigen challenge, vs control group, read-out: Inhibition rate (%) of PCA
Description: 2. Antiallergic activity (48 hr homologous passive cutaneous anaphylaxis (PCA) in rat)
Male Wistar rats, 6 weeks of age, were passively sensitized by intracutaneous injection in the back of a volume of 0.1 ml of anti-DNP-As rat serum. Forty-eight hours later, the animals were administered an intravenous injection of 0.5 ml saline solution containing 1 mg of DNP-As and 5 mg of Evans blue. The animals were sacrificed 30 min after the injection and the extravasated dye was extracted with 1N KOH and acetone, neutralized with 1N H3 PO4 and the absorbance at 620 nm was determined. The test compounds were administered orally in a dose of 1 mg/Kg 1 hr before antigen challenge. The inhibitory activity of a test compound was expressed as percent inhibition of PCA as compared with the control group.

[2] = target: T1, contractile response induced by histamine in isolated guinea-pig ileum (Cavia porcellus, UniProt P31389); test: Antihistaminic activity (Effect on the contractile response induced by histamine in isolated guinea-pig ileum); parameters: species or system guinea-pig (male Hartley); details: dissociation constant KB (M), method of Furchgott, 30 min contact with test compound, 28° C.
T1 construct: An approximately 20 mm strip of isolated ileum was mounted vertically; from tissue; host or cells: isolated ileum strip, male Hartley guinea-pig
T1 sequence (P31389 whole entry): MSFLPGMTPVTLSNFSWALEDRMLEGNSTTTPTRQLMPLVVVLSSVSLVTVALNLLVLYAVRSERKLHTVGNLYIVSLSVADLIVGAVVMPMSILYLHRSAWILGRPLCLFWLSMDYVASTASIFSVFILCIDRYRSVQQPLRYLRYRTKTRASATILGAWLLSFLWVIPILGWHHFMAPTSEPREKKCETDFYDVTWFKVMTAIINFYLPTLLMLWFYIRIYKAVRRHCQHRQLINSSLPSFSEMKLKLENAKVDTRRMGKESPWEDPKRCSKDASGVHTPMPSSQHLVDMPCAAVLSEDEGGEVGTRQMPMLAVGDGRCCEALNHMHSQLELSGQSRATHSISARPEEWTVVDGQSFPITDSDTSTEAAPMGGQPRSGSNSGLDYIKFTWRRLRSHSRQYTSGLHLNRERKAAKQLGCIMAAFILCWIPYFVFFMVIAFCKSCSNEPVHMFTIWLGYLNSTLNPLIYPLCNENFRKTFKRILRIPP
Description: 1. Antihistaminic activity (Effect on the contractile response induced by histamine in isolated guinea-pig ileum)
Male Hartley guinea-pigs, 5-8 weeks of age, were sacrificed and the ileum was excised. […] The contractile response was recorded on a recticorder an isotonic transducer. The concentration-contractile response curve to histamine was constructed before and after 30 min contact with test compounds.

Kb [2]	SMILES	inhibition at 1 mg/kg [1]
1.35e-09 M	CN1CCN(C2=Nc3ccccc3Sc3ccc(Cl)cc32)CC1 [Clothiapine, reference compound]	–
1.2e-08 M	CCOC(=O)CCN1CCN(C2=Nc3ccccc3Oc3ccc(Cl)cc32)CC1 [Example 2, Ethyl 4-(2-Chlorodibenz[b,f][1,4]oxazepin-11-yl)-1-piperazinepropionate]	–
4.9e-09 M	CCOC(=O)CCCN1CCN(C2=Nc3ccccc3Oc3ccc(Cl)cc32)CC1 [Example 4, Ethyl 4-(2-Chlorodibenz[b,f][1,4]oxazepin-11-yl)-1-piperazinebutyrate]	–
1.05e-08 M	CCOC(=O)CCCCN1CCN(C2=Nc3ccccc3Oc3ccc(Cl)cc32)CC1 [Example 5, Ethyl 4-(2-Chlorodibenz[b,f][1,4]oxazepin-11-yl)-1-piperazinevalerate]	–
5.01e-08 M	O=C(O)CCN1CCN(C2=Nc3ccccc3Oc3ccc(Cl)cc32)CC1 [Example 8, 4-(2-Chlorodibenz[b,f][1,4]oxazepin-11-yl)-1-piperazinepropionic acid]	88.6%
4.79e-08 M	O=C(O)CCCN1CCN(C2=Nc3ccccc3Oc3ccc(Cl)cc32)CC1 [Example 9, 4-(2-Chlorodibenz[b,f][1,4]oxazepin-11-yl)-1-piperazinebutyric acid]	95.8%
5.5e-08 M	O=C(O)CCCCN1CCN(C2=Nc3ccccc3Oc3ccc(Cl)cc32)CC1 [Example 10, 4-(2-Chlorodibenz[b,f][1,4]oxazepin-11-yl)-1-piperazinevaleric acid]	84.1%
5.13e-08 M	CCOC(=O)CCN1CCN(C2=Nc3ccccc3Sc3ccc(Cl)cc32)CC1 [Example 13, Ethyl 4-(2-Chlorodibenzo[b,f][1,4]thiazepin-11-yl)-1-piperazinepropionate]	–
3.02e-08 M	CCOC(=O)CCCN1CCN(C2=Nc3ccccc3Sc3ccc(Cl)cc32)CC1 [Example 15, Ethyl 4-(2-Chlorodibenzo [b,f][1,4]thiazepin-11-yl)-1-piperazinebutyrate]	–
4.68e-08 M	CCOC(=O)CCCCN1CCN(C2=Nc3ccccc3Sc3ccc(Cl)cc32)CC1 [Example 16, Ethyl 4-(2-Chlorodibenzo[b,f][1,4]thiazepin-11-yl)-1-piperazinevalerate]	–
5.5e-08 M	CCOC(=O)CCCCCN1CCN(C2=Nc3ccccc3Sc3ccc(Cl)cc32)CC1 [Example 17, Ethyl 4-(2-Chlorodibenzo[b,f][1,4]thiazepin-11-yl)-1piperazinecaproate]	–
5.25e-08 M	O=C(O)CCN1CCN(C2=Nc3ccccc3Sc3ccc(Cl)cc32)CC1 [Example 19, 4-(2-Chlorodibenzo[b,f][1,4]thiazepin-11-yl)-1-piperazinepropionic acid]	64.6%
5.75e-08 M	O=C(O)CCCN1CCN(C2=Nc3ccccc3Sc3ccc(Cl)cc32)CC1 [Example 20, 4-(2-Chlorodibenzo[b,f][1,4]thiazepin-11-yl)-1-piperazinebutyric acid]	77.7%
5.89e-08 M	O=C(O)CCCCN1CCN(C2=Nc3ccccc3Sc3ccc(Cl)cc32)CC1 [Example 21, 4-(2-Chlorodibenzo [b,f][1,4]thiazepin-11-yl)-1-piperazinevaleric acid]	78.5%
3.47e-08 M	O=C(O)CCCCCN1CCN(C2=Nc3ccccc3Sc3ccc(Cl)cc32)CC1 [Example 22, 4-(2-Chlorodibenzo[b,f][1,4]thiazepin-11-yl)-1-piperazinecaproic acid]	77.2%

Continued, compound first:

SMILES	Kb [2]	inhibition at 1 mg/kg [1]
Clc1ccc2c(c1)C(N1CCNCC1)=Nc1ccccc1O2 [Amoxapine, reference compound]	–	50.9%
CCOC(=O)CCCCCN1CCN(C2=Nc3ccccc3Oc3ccc(Cl)cc32)CC1 [Example 6]	3.09e-09 M	–
O=C(O)CCCCCN1CCN(C2=Nc3ccccc3Oc3ccc(Cl)cc32)CC1 [Example 11]	–	86.4%
CCOC(=O)CCN1CCN(C2=Nc3ccccc3Cc3ccccc32)CC1 [Example 24, Ethyl 4-(11H-Dibenz[b,e]azepin-6-yl)-1-piperazinepropionate]	8.91e-09 M	–
CCOC(=O)CN1CCN(C2=Nc3ccccc3Cc3ccccc32)CC1 [Example 25, Ethyl 4-(11H-Dibenz[b,e]azepin-6-yl)-1-piperazineacetate]	4.57e-08 M	–
CCOC(=O)CCCN1CCN(C2=Nc3ccccc3Cc3ccccc32)CC1 [Example 26, Ethyl 4-(11H-Dibenz[b,e]azepin-6-yl)-1-piperazinebutyrate]	1.35e-08 M	–
CCOC(=O)CCCCN1CCN(C2=Nc3ccccc3Cc3ccccc32)CC1 [Example 27, Ethyl 4-(11H-Dibenz[b,e]azepin-6-yl)-1-piperazinevalerate]	7.94e-09 M	–
CCOC(=O)CCCCCN1CCN(C2=Nc3ccccc3Cc3ccccc32)CC1 [Example 28, Ethyl 4-(11H-Dibenz[b,e]azepin-6-yl)-1-piperazinecaproate]	1.74e-08 M	–
O=C(O)CCN1CCN(C2=Nc3ccccc3Cc3ccccc32)CC1 [Example 30, 4-(11H-Dibenz[b,e]azepin-6-yl)-1-piperazinepropionic acid]	5.75e-08 M	–
O=C(O)CCCCN1CCN(C2=Nc3ccccc3Cc3ccccc32)CC1 [Example 32, 4-(11H-Dibenz[b,e]azepin-6-yl)-1-piperazinevaleric acid]	5.75e-08 M	–
O=C(O)CCCCCN1CCN(C2=Nc3ccccc3Cc3ccccc32)CC1 [Example 33, 4-(11H-Dibenz[b,e]azepin-6-yl)-1-piperazinecaproic acid]	2.69e-08 M	–
CCOC(=O)CCN1CCN2c3ccccc3Cc3ccccc3C2C1 (stereo not shown) [Example 35, Ethyl 3-(1,2,3,4,10,14b-Hexahydrodibenzo[c,f]pyrazino[1,2-a]azepin-2-yl)propionate]	2.69e-09 M	–
CCOC(=O)CN1CCN2c3ccccc3Cc3ccccc3C2C1 (stereo not shown) [Example 36, Ethyl 2-(1,2,3,4,10,14b-Hexahydrodibenzo[c,f]pyrazino[1,2-a]azepin-2-yl)acetate]	3.24e-08 M	–
CCOC(=O)CCCN1CCN2c3ccccc3Cc3ccccc3C2C1 (stereo not shown) [Example 37, Ethyl 4-(1,2,3,4,10,14b-Hexahydrodibenzo[c,f]pyrazino[1,2-a]azepin-2-yl)butyrate]	2.4e-09 M	–
CCOC(=O)CCCCN1CCN2c3ccccc3Cc3ccccc3C2C1 (stereo not shown) [Example 38, Ethyl 5-(1,2,3,4,10,14b-Hexahydrodibenzo[c,f]pyrazino[1,2-a]azepin-2-yl)valerate]	1.1e-08 M	–
CCOC(=O)CCCCCN1CCN2c3ccccc3Cc3ccccc3C2C1 (stereo not shown) [Example 39, Ethyl 6-(1,2,3,4,10,14b-Hexahydrodibenzo[c,f]Pyrazino[1,2-a]azepin-2-yl)caproate]	1.29e-08 M	–
O=C(O)CN1CCN2c3ccccc3Cc3ccccc3C2C1 (stereo not shown) [Example 40, 2-(1,2,3,4,10,14b-Hexahydrodibenzo[c,f]pyrazino[1,2-a]azepin-2-yl)acetic acid]	1.82e-08 M	–
O=C(O)CCN1CCN2c3ccccc3Cc3ccccc3C2C1 (stereo not shown) [Example 41, 3-(1,2,3,4,10,14b-Hexahydrodibenzo[c,f]pyrazino[1,2-a]azepin-2-yl)propionicacid]	2.51e-08 M	76.5%
O=C(O)CCCN1CCN2c3ccccc3Cc3ccccc3C2C1 (stereo not shown) [Example 42, 4-(1,2,3,4,10,14b-Hexahydrodibenzo[c,f]pyrazino[1,2-a]azepin-2-yl)butyric acid]	3.09e-08 M	65.6%
O=C(O)CCCCN1CCN2c3ccccc3Cc3ccccc3C2C1 (stereo not shown) [Example 43, 5-(1,2,3,4,10,14b-Hexahydrodibenzo[c,f]pyrazino[1,2-a]azepin-2-yl)valeric acid]	4.79e-08 M	73.9%
O=C(O)CCCCCN1CCN2c3ccccc3Cc3ccccc3C2C1 (stereo not shown) [Example 44, 6-(1,2,3,4,10,14b-Hexahydrodibenzo[c,f]pyrazino[1,2-a]azepin-2-yl)caproic acid]	3.24e-08 M	71.8%
CN1CCN2c3ccccc3Cc3ccccc3C2C1 (stereo not shown) [Mianserin, reference compound]	–	61.4%
CN1CCN(C2=Nc3ccccc3Cc3ccccc32)CC1 [Perlapine, reference compound]	7.08e-10 M	–

— patent US5344828A, “Piperazinealkanoic acid and a pharmaceutical composition comprising the same” (Hokuriku Pharmaceutical Co., Ltd., priority 1990, dated 1994)
